Data on one compound can be found in ChEMBL document CHEMBL1157288, “Isolation and structure assignment of an iminotetrasaccharide from a cultured filamentous cyanobacterium Anabaena sp” (J Nat Prod, 2006).

For this assay, the system named is Escherichia coli. The assay is described as follows: Inhibition of Escherichia coli beta-glucuronidase at 560 uM.

`CO[C@@H]1[C@@H](O)[C@@H](O[C@@H]2[C@@H]([C@H](C)O)NC[C@@H]2O)O[C@H](CO)[C@H]1O[C@H]1OC[C@H](OC(C)=O)[C@H](OC(C)=O)[C@H]1O[C@H]1O[C@H](C(=O)O)[C@@H](O)[C@H](O)[C@H]1O` registered an inhibition of 50%.
